The subject of the assay is Swiss mice, Sarcoma 180 sc, mean tumor weight T/C. In words: NCI In Vivo Anticancer Drug Screen. Data for tumor model Sarcoma 180 (subcutaneous) in Swiss mice. To be noted: endpoint: mean tumor weight, higher = larger tumour. The method in brief:
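T/C ratio: treated over vehicle-treated controls, measuring survival or tumor size in transplanted-tumor mice.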

[1] abbreviates: dose: 25.0 mg/kg/injection, schedule: Q01DX007 (ip), vehicle: carboxymethylcellulose (CMC).
The mark [2] stands for this setting: dose: 50.0 mg/kg/injection, schedule: Q01DX007 (ip), vehicle: carboxymethylcellulose (CMC).
Setting [3] is: dose: 4.0 mg/kg/injection, schedule: Q01DX007 (ip), vehicle: carboxymethylcellulose (CMC).
Where [4] appears, read: dose: 12.5 mg/kg/injection, schedule: Q#A X014 (ip), vehicle: carboxymethylcellulose (CMC).
Setting [5] is: dose: 6.25 mg/kg/injection, schedule: Q#A X014 (ip), vehicle: carboxymethylcellulose (CMC).
[6] abbreviates: dose: 25.0 mg/kg/injection, schedule: Q#A X014 (ip), vehicle: carboxymethylcellulose (CMC).

The structures appear in SMILES notation. Several values for one entry are separate records, joined by “and”; a condition that tells them apart may be missing. Identical values can stand only once.

With `CCOc1ccc2nc(S(N)(=O)=O)sc2c1`, the T/C – broadly, the result in the treated group divided by that in the control group, in per cent – runs as follows: under setting [1], 78 % of control; (dose: 29.0 mg/kg/injection, schedule: Q01DX007 (ip), vehicle: carboxymethylcellulose (CMC)) 70 % of control; (dose: 44.0 mg/kg/injection, schedule: Q01DX007 (ip), vehicle: carboxymethylcellulose (CMC)) 22 % of control; (dose: 49.5 mg/kg/injection, schedule: Q#A X014 (ip), vehicle: methylcellulose (MC)) 29 % of control and 48 % of control; under setting [2], 39 % of control; (dose: 66.0 mg/kg/injection, schedule: Q01DX007 (ip), vehicle: carboxymethylcellulose (CMC)) 51 % of control. Besides, the T/C is, setting by setting: (dose: 74.0 mg/kg/injection, schedule: Q#A X014 (ip), vehicle: methylcellulose (MC)) 13 % of control and 22 % of control; (dose: 99.0 mg/kg/injection, schedule: Q01DX007 (ip), vehicle: carboxymethylcellulose (CMC)) 43 % of control; (dose: 100.0 mg/kg/injection, schedule: Q01DX007 (ip), vehicle: carboxymethylcellulose (CMC)) 34 % of control.
Take `CSc1nc(C)c(Br)c(Sc2nc(N)nc3nc[nH]c23)n1`: the T/C is 91 % of control under setting [3]; 84 % of control (dose: 5.0 mg/kg/injection, schedule: Q01DX007 (ip), vehicle: carboxymethylcellulose (CMC)); 43 % of control (dose: 5.5 mg/kg/injection, schedule: Q#A X014 (ip), vehicle: carboxymethylcellulose (CMC)); 24 % of control (dose: 5.5 mg/kg/injection, schedule: Q#A X014 (ip), vehicle: methylcellulose (MC)); 90 % of control (dose: 6.0 mg/kg/injection, schedule: Q01DX007 (ip), vehicle: carboxymethylcellulose (CMC)); 77 % of control (dose: 6.2 mg/kg/injection, schedule: Q01DX007 (ip), vehicle: carboxymethylcellulose (CMC)). Also, the T/C by setting is: (dose: 7.0 mg/kg/injection, schedule: Q01DX007 (ip), vehicle: carboxymethylcellulose (CMC)) 66 % of control; (dose: 8.5 mg/kg/injection, schedule: Q#A X014 (ip), vehicle: carboxymethylcellulose (CMC)) 33 % of control; (dose: 8.5 mg/kg/injection, schedule: Q#A X014 (ip), vehicle: methylcellulose (MC)) 57 % of control; (dose: 11.0 mg/kg/injection, schedule: Q01DX007 (ip), vehicle: carboxymethylcellulose (CMC)) 74 % of control; (dose: 12.5 mg/kg/injection, schedule: Q01DX007 (ip), vehicle: carboxymethylcellulose (CMC)) 69 % of control; under setting [4], 24 % of control. Also, the T/C by setting is: (dose: 12.5 mg/kg/injection, schedule: Q#A X014 (ip), vehicle: methylcellulose (MC)) 16 % of control; (dose: 17.0 mg/kg/injection, schedule: Q01DX007 (ip), vehicle: carboxymethylcellulose (CMC)) 31 % of control; (dose: 18.5 mg/kg/injection, schedule: Q#A X014 (ip), vehicle: carboxymethylcellulose (CMC)) 18 % of control; (dose: 18.5 mg/kg/injection, schedule: Q#A X014 (ip), vehicle: methylcellulose (MC)) 7 % of control; under setting [1], 20 % of control; (dose: 37.0 mg/kg/injection, schedule: Q01DX007 (ip), vehicle: carboxymethylcellulose (CMC)) 22 % of control. Also, the T/C was 52 % of control (dose: 40.0 mg/kg/injection, schedule: Q01DX007 (ip), vehicle: carboxymethylcellulose (CMC)) and 46 % of control (dose: 60.0 mg/kg/injection, schedule: Q01DX007 (ip), vehicle: carboxymethylcellulose (CMC)).
With `CCCCCC[C@@H](O)C/C=C\CCCCCCCC(=O)O`, the T/C runs as follows: (dose: 31.3 mg/kg/injection, schedule: Q01DX007 (ip), vehicle: saline) 59 % of control; (dose: 62.5 mg/kg/injection, schedule: Q01DX007 (ip), vehicle: saline) 95 % of control; (dose: 125.0 mg/kg/injection, schedule: Q01DX007 (ip), vehicle: saline) 87 % of control.
On to `O=c1[nH]cc(F)c(=O)[nH]1`, for which the T/C reads like this: (dose: 3.12 mg/kg/injection, schedule: Q#A X014 (ip), vehicle: carboxymethylcellulose (CMC)) 83 % of control; under setting [5], 100 % of control; (dose: 6.3 mg/kg/injection, schedule: Q#A X014 (ip), vehicle: carboxymethylcellulose (CMC)) 83 % of control; (dose: 9.5 mg/kg/injection, schedule: Q#A X014 (ip), vehicle: carboxymethylcellulose (CMC)) 48 % of control; under setting [4], 90 % of control; (dose: 12.66 mg/kg/injection, schedule: Q#A X014 (ip), vehicle: carboxymethylcellulose (CMC)) 39 % of control. In addition, the T/C (dose: 15.2 mg/kg/injection, schedule: Q01DX007 (ip), vehicle: carboxymethylcellulose (CMC)) was 73 % of control and 89 % of control; the T/C (dose: 19.0 mg/kg/injection, schedule: Q#A X014 (ip), vehicle: carboxymethylcellulose (CMC)) is 2 % of control; the T/C under setting [6] is 25 % of control; the T/C (dose: 25.3 mg/kg/injection, schedule: Q01DX007 (ip), vehicle: carboxymethylcellulose (CMC)) was 76 % of control; the T/C (dose: 25.33 mg/kg/injection, schedule: Q01DX007 (ip), vehicle: carboxymethylcellulose (CMC)) is 53 % of control.
Take `CC(=O)OCC(=O)[C@@]1(O)CC[C@H]2[C@@H]3C[C@H](F)C4=CC(=O)CC[C@]4(C)[C@H]3C(=O)C[C@@]21C`: the T/C (dose: 2.5 mg/kg/injection, schedule: Q01DX007 (sc), vehicle: steriod suspending solution) is 60 % of control; the T/C (dose: 5.0 mg/kg/injection, schedule: Q01DX007 (sc), vehicle: steriod suspending solution) was 49 % of control; the T/C (dose: 10.0 mg/kg/injection, schedule: Q01DX007 (sc), vehicle: steriod suspending solution) was 51 % of control; the T/C (dose: 19.0 mg/kg/injection, schedule: Q01DX007 (sc), vehicle: steriod suspending solution) was 41 % of control; the T/C (dose: 29.0 mg/kg/injection, schedule: Q01DX007 (sc), vehicle: steriod suspending solution) was 31 % of control.
As for `Nc1nc(N)c2[nH]cnc2n1`, the T/C under setting [5] is 106 % of control; the T/C (dose: 11.25 mg/kg/injection, schedule: Q#A X014 (ip), vehicle: carboxymethylcellulose (CMC)) is 103 % of control; the T/C (dose: 22.5 mg/kg/injection, schedule: Q#A X014 (ip), vehicle: carboxymethylcellulose (CMC)) was 83 % of control; the T/C under setting [6] was 121 % of control; the T/C (dose: 45.0 mg/kg/injection, schedule: Q#A X014 (ip), vehicle: carboxymethylcellulose (CMC)) is 68 % of control; the T/C (dose: 90.0 mg/kg/injection, schedule: Q#A X014 (ip), vehicle: carboxymethylcellulose (CMC)) is 48 % of control.
Take `CC(=O)OC1(C)CC(C)C(=O)C(C(O)CC2CC(=O)NC(=O)C2)C1` (stereo not drawn): the T/C is 122 % of control (dose: 1:40.0 dilution, schedule: Q01DX007 (ip), vehicle: water); 79 % of control and 92 % of control (dose: 1:2000.0 dilution, schedule: Q01DX007 (ip), vehicle: water); 49 % of control (dose: 1:4000.0 dilution, schedule: Q01DX007 (ip), vehicle: water).
As to `[N-]=[N+]=C1N=CN=C1c1ncn[nH]1`, the T/C is, setting by setting: under setting [1], 107 % of control; under setting [2], 69 % of control.
For `CC(=O)C1(/C(C)=C/C2C(C=O)=CC(C)(C)C2O)CC1` (stereo not drawn), the T/C is 106 % of control (dose: 0.25 mg/kg/injection, schedule: Q01DX007 (ip), vehicle: saline); 59 % of control (dose: 0.5 mg/kg/injection, schedule: Q01DX007 (ip), vehicle: saline); 65 % of control (dose: 1.0 mg/kg/injection, schedule: Q01DX007 (ip), vehicle: saline); 67 % of control (dose: 2.0 mg/kg/injection, schedule: Q01DX007 (ip), vehicle: saline); 75 % of control (dose: 8.0 mg/kg/injection, schedule: Q01DX007 (ip), vehicle: saline); 94 % of control and 102 % of control (dose: 16.0 mg/kg/injection, schedule: Q01DX007 (ip), vehicle: saline). Further, the T/C by setting is: (dose: 32.0 mg/kg/injection, schedule: Q01DX007 (ip), vehicle: saline) 99 % of control; (dose: 64.0 mg/kg/injection, schedule: Q01DX007 (ip), vehicle: saline) 77 % of control; (dose: 128.0 mg/kg/injection, schedule: Q01DX007 (ip), vehicle: saline) 78 % of control.
Consider `CCCCNc1ncnc2c1cnn2C`, for which the T/C under setting [3] is 124 % of control; the T/C (dose: 8.0 mg/kg/injection, schedule: Q01DX007 (ip), vehicle: carboxymethylcellulose (CMC)) is 107 % of control and 121 % of control; the T/C (dose: 31.0 mg/kg/injection, schedule: Q01DX007 (ip), vehicle: carboxymethylcellulose (CMC)) was 92 % of control; the T/C (dose: 32.0 mg/kg/injection, schedule: Q01DX007 (ip), vehicle: carboxymethylcellulose (CMC)) was 77 % of control; the T/C (dose: 62.0 mg/kg/injection, schedule: Q01DX007 (ip), vehicle: carboxymethylcellulose (CMC)) was 112 % of control.
